Test results published in patent US5194445A, “Ascorbic acid derivative” (Nippon Hypox Laboratories Incorporated, priority 1989, dated 1993).

Assays:
[1] = test system: Rat Liver Microsome; assay: Activity to Inhibit Hyperoxidation of Lipid of Rat Liver Microsome (thiobarbituric acid method); type: biochemical
Description: Activity to Inhibit Hyperoxidation of Lipid of Rat Liver Microsome
A rat liver microsome was prepared according to a conventional method, and suspended in 1.15% KCl to obtain a microsome suspension.
The above microsome suspension in an amount equivalent to 2 mg of a protein was added to a tris-HCl buffer (pH 7.4) to which NADPH, ADP and FeCl3 had been added such that the final concentrations were 0.2 mM of NADPH, 1 mM of ADP and 10 μM of FeCl3.
A dimethylformamide (DMF) solution of each of test compounds in an amount of 10 μl or DMF in an amount of 10 μl was added such that the total amount of each of the mixtures was 1 ml, and then, the mixtures were kept at 37° C. for 20 minutes. In addition, the test compounds were added in such amounts that their final concentrations became 10^-5 M.
Thereafter, according to a thiobarbituric acid method, the above mixtures were measured for an amount of peroxide lipid formed. The inhibiting activities of the test compounds were compared with that of the group containing the solvent (DMF) alone, and the results were expressed as an inhibition ratio (%).

[2] = test system: Ventricular Arrhythmia During Coronary Occlusion-Reperfusion in Rat Heart; assay: Activity to Inhibit Ventricular Arrhythmia During Coronary Occlusion-Reperfusion in Rat Heart; type: in vivo, male Wistar rats; settings: for Total time of arrhythmia occurrence (second) (mean + S.E.): 10 minutes (600 seconds) observation
Description: Activity to Inhibit Ventricular Arrhythmia During Coronary Occlusion-Reperfusion in Rat Heart
Five to ten male Wistar rats (weight 230 to 460 g per rat) were used as one group for each of test compounds. Each of the rats was anesthetized with sodium pentobarbital, and electrocardiograms thereof were recorded with standard lead II.
The rats were subjected to thoracotomy under artificial respiration, and left coronary artery ramus anterior descendenses were ligated for 5 minutes and then perfused.
In addition, each of test compounds was suspended in a physiological saline containing 1% olive oil and 1% Tween 80, and the resultant suspensions were administered into femoral veins 2 minutes before the coronary occlusion, or orally administered 1 hour before the coronary occlusion, such that the amounts of said compounds were as predetermined.
When a left coronary artery ramus anterior descendence is occluded for 5 minutes and then reperfused, ventricular arrhythmia typified by ventricular tachycardia (VT) and ventricular fibrillation (VF) occurs.

[3] = test system: Ischemic Brain Model Mouse; assay: Action on Survival Rate of Ischemic Brain Model Mouse; type: in vivo, ICR male mice; settings: oral, 100 mg/kg
Description: Action on Survival Rate of Ischemic Brain Model Mouse
Thirteen to fifty-six ICR male mice were used as one group for each of test compounds. Each of the mice was anesthetized by intraperitoneal administration of sodium pentobarbital, the bilateral carotid arteries were exposed, a thread was put around the arteries, and the skin was sutured with one end of the thread outside the body.
Three days after the suture of the skin, the bilateral carotid arteries were ligated for 3 minutes, and then reperfused to obtain ischemic brain model mice. And, a survival rate in each group 24 hours after the ligation-reperfusion of bilateral carotid arteries was determined.
In addition, each of the test compounds was suspended in a physiological saline containing 1% olive oil and 1% Tween 80, and the suspension was orally administered one hour before the ligation of the bilateral carotid arteries such that the amount of each test compound was 100 mg/kg.

[4] = test system: CCl4 Liver Dysfunction; assay: Action on CCl4 Liver Dysfunction; type: in vivo, ICR male mice; settings: oral
Description: Action on CCl4 Liver Dysfunction
Fourteen and seventeen ICR male mice were used as one group for each test. Each of the mice was hypodermically administered in its dorsal portion with 10 ml/kg of a solution of 10% CCl4 in olive oil to develop acute hepatitis, and the serum obtained by centrifugation of a blood sample taken from each mouse 48 hours after the administration was measured on GOT (glutamic-oxaloacetic transaminase) activity and GPT (glutamic-pyruvictransaminase) activity with an autoanalyzer (AU550, supplied by Olympus K.K.).
In addition, the test compound was suspended in physiological saline containing 1% olive oil and 1% Tween 80, and the resultant suspension was orally administered three times in total, immediately after the CCl4 administration and in the morning and evening on the day thereafter, such that the dose of each test compound was 100 mg/kg/one time administration.

[5] = test system: Ischemic Acute Renal Insufficiency; assay: Action on Ischemic Acute Renal Insufficiency; type: in vivo, male Wistar rats; settings: intravenous, 72 hours after reperfusion
Description: Action on Ischemic Acute Renal Insufficiency
Four male Wistar rats (weight: about 200 g per rat) were used as one group for each test. Each of the rats was anesthetized with sodium pentobarbital, the right kidney was extirpated, and immediately thereafter, 100 IU/kg of heparin was intravenously administered to its tail. Eight minutes after the administration, the left renal artery was ligated with a suture, and 60 minutes after the ligation, and the renal artery was reperfused by unligating the suture to develop ischemic acute renal insufficiency in each of the rats.
Immediately before the administration of sodium pentobarbital and 72 hours after the reperfusion, blood samples were taken from the tail artery of each rat, and the serums obtained by centrifugation of the sample bloods were respectively measured for a blood urea nitrogen (BUN) amount and a creatinine amount, indices for renal insufficiency, with an autoanalyzer (AU550, supplied by Olympus K.K.).
In addition, the test compound was suspended in a physiological saline containing 1% olive oil and 1% Tween 80, and the resultant suspension was intravenously administered to the tail of each rat 10 minutes before the administration of sodium pentobarbital or 10 minutes before the reperfusion such that the dose of the test compound was 10 mg/kg or 30 mg/kg.

[6] = Stability Test; type: physicochemical; settings: room temperature, after 24 hours, tris-HCl buffer pH 9.0; read-out: residual content
Description: A tris-HCI buffer having pH of 9.0 was added to each of alcohol solutions of the compounds (Ia2), (Ia3), (IA2) and 2-O-dodecyl ascorbic acid, which was a position isomer of the compound (IA2), in such a manner that the amount of the buffer was 100 times as large as that of each alcohol solution.
The test compounds in the solutions which were allowed to stand at room temperature were quantitatively determined with time to measure their stability.

[7] = test system: Mouse; assay: Acute Toxicity Test on Mouse; type: in vivo, Male 3-ICR mice; settings: intravenous
Description: Acute Toxicity Test on Mouse
Male 3-ICR mice (10 weeks of age) were used. The compounds (Ia2), (Ia3) and (IA2) were intravenously administered to the mice in such a manner that the doses of each of the compounds were 30 mg/kg and 100 mg/kg. For one week after the administration, symptoms were observed.

[8] = 10^-5 M, pH 7.4, 37° C., 20 minutes, versus solvent (DMF) alone, 10 µM
[9] = 10^-5 M, pH 7.4, 37° C., 20 minutes, versus solvent (DMF) alone; 10 µM
[10] = 100 mg/kg/one time, three times, serum 48 hours after CCl4

## CCCCCCCCCCCCCCC(=O)COC1=C(O)C(=O)OC1C(O)CO (centres unmarked) [Compound (Ia4)]
[1]; [8]
  Lipid hyperoxidation inhibition ratio (%): 65%

## CCCCCCC(=O)COC1=C(O)C(=O)O[C@@H]1[C@@H](O)CO [(a), reference compound]
[1]; [9]
  Lipid hyperoxidation inhibition ratio (%): 27%

## CCCCCCCCOC1=C(O)C(=O)O[C@@H]1[C@@H](O)CO [(c), reference compound]
[1]; [9]
  Lipid hyperoxidation inhibition ratio (%): 40%

## CCCCCCCCCCCCCCCCCCOC1=C(O)C(=O)O[C@@H]1[C@@H](O)CO [(d), reference compound]
[1]; [9]
  Lipid hyperoxidation inhibition ratio (%): 45%

## CCCCCCCCCCCCC(=O)COC1=C(O)C(=O)O[C@@H]1[C@@H](O)CO [Compound (Ia3), 3-O-dodecylcarbonylmethyl ascorbic acid]
[1]; [8]
  Lipid hyperoxidation inhibition ratio (%): 85%
[1]; 10^-5 M, pH 7.4, 37° C., 20 minutes, versus solvent (DMF) alone, 10 µM, listed as Compound (IA3)
  Lipid hyperoxidation inhibition ratio (%): 81%
[2]; i.v., 0.3 mg/kg, 2 minutes before coronary occlusion
  Total time of arrhythmia occurrence (second) (mean + S.E.): 471.0 ± 73.6 s
[2]; i.v., 1 mg/kg, 2 minutes before coronary occlusion
  Total time of arrhythmia occurrence (second) (mean + S.E.): 216.1 ± 59.6 s
[2]; i.v., 3 mg/kg, 2 minutes before coronary occlusion
  Total time of arrhythmia occurrence (second) (mean + S.E.): 273.5 ± 93.8 s
[2]; i.v., 10 mg/kg, 2 minutes before coronary occlusion
  Total time of arrhythmia occurrence (second) (mean + S.E.): 203.8 ± 91.0 s
[2]; i.v., 30 mg/kg, 2 minutes before coronary occlusion
  Total time of arrhythmia occurrence (second) (mean + S.E.): 150.5 ± 79.8 s
[2]; intravenously, not less than 1 mg/kg
  inhibition of occurrence of arrhythmia: same significant inhibition
[2]; orally, not less than 10 mg/kg
  inhibition of occurrence of arrhythmia: same significant inhibition
[2]; p.o., 10 mg/kg, 1 hour before coronary occlusion
  Total time of arrhythmia occurrence (second) (mean + S.E.): 378.2 ± 61.4 s
[2]; p.o., 30 mg/kg, 1 hour before coronary occlusion
  Total time of arrhythmia occurrence (second) (mean + S.E.): 313.3 ± 81.7 s
[2]; p.o., 100 mg/kg, 1 hour before coronary occlusion
  Total time of arrhythmia occurrence (second) (mean + S.E.): 85.4 ± 28.9 s
[2]; p.o., 300 mg/kg, 1 hour before coronary occlusion
  Total time of arrhythmia occurrence (second) (mean + S.E.): 123.6 ± 43.7 s
[3]; one hour before ligation, 24 hours after ligation-reperfusion of bilateral carotid arteries
  Survival rate (%): 80.0%
[3]; 24 hours after ligation-reperfusion
  survival rate versus vehicle group: significantly higher
[4]; 100 mg/kg
  GOT activity value: significantly reduced
  GPT activity value: significantly reduced
[4]; [10]
  GOT activity (mean ± S.E): 445.0 ± 69.0 Unit/1
  GPT activity (mean ± S.E): 1,406.4 ± 185.2 Unit/1
[5]; 10 mg/kg
  BUN amount (mean ± S.E.): 33.8 ± 6.1 mg/dL
  Creatinine amount (mean ± S.E.): 0.93 ± 0.05 mg/dL
[5]; 30 mg/kg
  BUN amount (mean ± S.E.): 34.1 ± 8.9 mg/dL
  Creatinine amount (mean ± S.E.): 1.04 ± 0.12 mg/dL
[5]; 10 or 30 mg/kg
  BUN amount versus vehicle group: significantly smaller
  creatinine amount versus vehicle group: significantly smaller
[6]
  remaining at 24 h: ≥ 80%
[7]; 30 mg/kg
  death during observation for one week: no death was found
[7]; 100 mg/kg
  death during observation for one week: no death was found

## CCCCCCCCCCCCCCCCCCOC(=O)COC1=C(O)C(=O)O[C@@H]1[C@@H](O)CO [Compound (IA6)]
[1]; [8]
  Lipid hyperoxidation inhibition ratio (%): 73%

## CCCCCCCCCCOC(=O)COC1=C(O)C(=O)O[C@@H]1[C@@H](O)CO [Compound (IA5)]
[1]; [8]
  Lipid hyperoxidation inhibition ratio (%): 72%

## CCCCCCCCCCCCCCCCC(=O)COC1=C(O)C(=O)O[C@@H]1[C@@H](O)CO [(b), reference compound]
[1]; [9]
  Lipid hyperoxidation inhibition ratio (%): 43%
